Entries after “also recorded” stand apart in the source; their conditions may differ.
Test system: Clostridium difficile toxin A-induced colitis
Assay: Toxin A-induced colitis, acute intraluminal pretreatment of isolated colonic segment
Assay type: in vivo, Sprague-Dawley rats
Conditions: for toxin A-induced structural damage of the colon (H&E) / percent inhibition of toxin A-induced MPO activity / percent inhibition of toxin A-induced luminal fluid accumulation: 30 minutes before toxin A; for relative potency and interaction for inhibition of acute toxin A-induced colitis: given alone versus together
Protocol: Drug Administration. In studies using chronic administration, sulfasalazine, APAZA™, and 4-APAA were administered in the drinking water at doses ranging from 0.1-100 mg/kg·d for 5 days. Sulfasalazine and APAZA™ were initially dissolved in 0.1 N NaOH at 30 times the desired final concentration and then the pH was adjusted to 8.5 with 1 N HCl and the solution was diluted 30-fold with distilled water. 4-APAA was dissolved in water. On the fifth day, the rats were fasted overnight (with access to their drinking water±sulfasalazine, APAZA™, or 4-APAA ad lib), anesthetized, and isolated colonic segments were surgically created as described below. In studies using acute administration, the rats were pretreated by injection of 4-APAA at doses of 10 or 100 μg in 200 μl of PBS (pH 7.4) into the lumen of the colonic segment using a 27 ga syringe needle. Toxin A (10 μg) in 200 μl of PBS (pH 7.4) was tested alone or injected into the lumen of the colonic segment 30 minutes after 4-APAA using a 27 ga syringe needle.
Surgery. Isolated colonic segments were created in male Sprague-Dawley rats (150-175 g) as described previously for isolated ileal segments (see, Gastroenterol. 111: 1272-1280 (1996) and Proc. Natl. Acad. Sci. USA 91: 947-951 (1994). Rats fasted overnight with free access to drinking water were anesthetized by intramuscular injection of 67 mg/kg ketamine:33 mg/kg xylazine. A midline abdominal incision was made and colonic segments 5 cm in length were created by ligation with 4-0 silk sutures, taking care not to disturb the vascular supply. Toxin A (10 μg) in 400 μl of PBS (pH 7.4) was injected into the lumen of the colonic segment using a 27 ga syringe needle. Control rats were prepared similarly and their colonic segments were injected with the vehicles. The midline incision was then closed with a running suture, and the rats were placed on a heating pad at 37° C. for 3 hours. After 3 hours, the rats were euthanized and samples of the treated colonic segments were taken for analysis in vitro.
Histopathology. The severity of colonic histological damage was assessed using formalin-fixed, paraffin-embedded, H&E-stained sections.
Luminal Fluid Accumulation. Luminal fluid accumulation was measured gravimetrically. After 3 hours of treatment, the isolated colonic segments were removed, weighed, and their lengths were measured. Luminal fluid accumulation is expressed as mg wet weight per cm length.
Myeloperoxidase Activity. Myeloperoxidase (MPO) activity was measured as described previously (see, J. Invest. Dermatol. 78: 206-209 (1982)). Briefly, pieces of control and treated colonic segments were homogenized in 0.5% hexadecyltrimethylammonium bromide in 50 mM KH2PO4 (pH 6), freeze/thawed three times, centrifuged at 4° C. for 2 minutes, and then the absorbance of each supernatant was read at 460 nm at 0, 30, and 60 seconds after the addition of 2.9 ml of o-dianisidine dihydrochloride to 0.1 ml supernatant. The maximal change in absorbance per minute was used to calculate the units of MPO activity based on the molar absorbency index of oxidized o-dianisidine of 1.13×10^4 M^−1 cm^−1. The results are expressed as MPO units of activity per mg of tissue wet weight.
Adult male Sprague-Dawley rats (175-225 grams body weight) were purchased from Charles River Labs (Raleigh, N.C.). 4-APAA and 5-ASA were separately injected into the lumen of an isolated segment of the rat colon at doses of 0.01, 0.1, 1, and 10 μg (in volumes of 200 μl) 30 minutes prior to injection of 10 μg of Clostridium difficile toxin A. In a follow-up study, a combined dose of 10 ng (0.01 μg) each of 4-APAA and 5-ASA was injected prior to toxin A.
[…] Colonic inflammation was assessed by quantitating luminal fluid accumulation and myeloperoxidase content in the colonic segment tissue, and by examination of colonic structural damage using hematoxylin & eosin-stained sections of the treated colonic segment.
Surgery. […]

[1] = 0.01 μg (10 ng) each, intraluminal

SMILES	toxin A-induced MPO activity, significance of inhibition [1]	toxin A-induced luminal fluid accumulation, significance of inhibition [1]	toxin A-induced structural damage of the colon (H&E) [1]	toxin A-induced luminal fluid accumulation, significance of inhibition (0.1 μg intraluminal)	toxin A-induced structural damage of the colon (H&E) (0.1 μg intraluminal)	toxin A-induced MPO activity, significance of inhibition (1.0 μg intraluminal)	toxin A-induced luminal fluid accumulation, significance of inhibition (1.0 μg intraluminal)	toxin A-induced structural damage of the colon (H&E) (1.0 μg intraluminal)	toxin A-induced MPO activity, significance of inhibition (10 μg intraluminal)	toxin A-induced luminal fluid accumulation, significance of inhibition (10 μg intraluminal)	percent inhibition of toxin A-induced MPO activity (10 μg intraluminal) [%]	percent inhibition of toxin A-induced luminal fluid accumulation (10 μg intraluminal) [%]	toxin A-induced structural damage of the colon (H&E) (10 μg intraluminal)	percent inhibition of toxin A-induced MPO activity (100 μg intraluminal) [%]	percent inhibition of toxin A-induced luminal fluid accumulation (100 μg intraluminal) [%]	toxin A-induced structural damage of the colon (H&E) (100 μg intraluminal)	relative potency and interaction for inhibition of acute toxin A-induced colitis	lowest dose that strongly inhibited toxin A-induced colitis in this experiment (intraluminal injection 30 minutes before toxin A, 10 and 100 μg tested) [μg/segment]
Nc1ccc(CC(=O)O)cc1 [4-APAA, (4-aminophenyl)-acetic acid]	not significantly inhibited	significantly inhibited	did not prevent	significantly inhibited	preserved mucosal folding	significantly inhibited	significantly inhibited	preserved mucosal folding	significantly inhibited	significantly inhibited	91±8	52±4	strongly protected; also recorded: virtually completely protected	89±10	80±5	strongly protected	approximately equipotent	10
Nc1ccc(O)c(C(=O)O)c1 [5-ASA, 5-amino-2-hydroxy-benzoic acid, reference compound]	not significantly inhibited	significantly inhibited	did not prevent	significantly inhibited	partially preserved surface ulceration	significantly inhibited	significantly inhibited	mucosal folding was also largely preserved	significantly inhibited	significantly inhibited			virtually completely protected				approximately equipotent	

From patent publication US8048924B2, “Methods and compositions employing 4-aminophenylacetic acid compounds” (Biocon Limited, priority 2001, dated 2011)
